Measurements published in the supplement of paper PMC10883282.
± gives the standard deviation of the averaged measurements.

Tests used:
Test in all cases: relative viability vs DMSO control (72 h) (fraction); higher = more viable cells
[1] = test system: RD
Procedure, shortened: (§1)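 ATPLite readings, expressed as percent growth and averaged over up to triplicate wells, provided relative viability. Before reading, sarcoma cell lines seeded in 384-well plates to reach 80–90% confluence received 2.5 µl of serially diluted compound after 24 h, from source plates of 10 mM to 0.0002 mM. Plates were held 72 h at 37 °C, 5% CO2, with 0.1% DMSO as vehicle and a 5 µM positive control. The data were rescaled to 1 for full and 0 for none.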

[2] = test system: KHOS-240S
Procedure, shortened: as §1

[3] = test system: MES-SA
Procedure, shortened: as §1

[4] = test system: SW1353
Procedure, shortened: as §1

[5] = test system: SYO-1
Procedure, shortened: as §1

O=C1NC(=O)[C@@H](c2cn3c4c(cccc24)CCC3)[C@@H]1c1c[nH]c2ccccc12 [Tivantinib]
relative viability
Settings	[1]	[2]	[3]	[4]	[5]
0.00017 µM	1.05 ± 0.01	1.03 ± 0.022	0.9028 ± 0.0089	0.982 ± 0.053	0.934 ± 0.055
0.00051 µM	1.09 ± 0.049	1.03 ± 0.019	0.908 ± 0.012	0.9442 ± 0.0082	0.928 ± 0.016
0.00152 µM	1.09 ± 0.036	1.05 ± 0.023	0.92 ± 0.015	0.985 ± 0.043	0.95 ± 0.047
0.00457 µM	1.1 ± 0.049	1.04 ± 0.032	0.919 ± 0.04	0.96 ± 0.034	0.924 ± 0.033
0.01372 µM	1.12 ± 0.02	1.05 ± 0.037	0.914 ± 0.057	0.99 ± 0.043	0.911 ± 0.041
0.04115 µM	1.04 ± 0.028	1.01 ± 0.021	0.888 ± 0.037	0.963 ± 0.032	0.894 ± 0.045
0.1235 µM	1.04 ± 0.042	0.983 ± 0.025	0.919 ± 0.037	0.955 ± 0.032	0.861 ± 0.041
0.3704 µM	0.81 ± 0.027	0.791 ± 0.032	0.406 ± 0.011	0.88 ± 0.018	0.716 ± 0.068
1.111 µM	0.371 ± 0.028	0.271 ± 0.012	0.285 ± 0.009	0.666 ± 0.017	0.327 ± 0.019
3.333 µM	0.219 ± 0.01	0.25 ± 0.0098	0.205 ± 0.0074	0.45 ± 0.014	0.271 ± 0.024
10 µM	0.267 ± 0.0046	0.176 ± 0.011	0.1134 ± 0.00098	0.453 ± 0.018	0.28 ± 0.019

O=S(=O)(c1cccc2cnccc12)N1CCCNCC1 [Fasudil]
relative viability
Settings	0.00051 µM	0.00152 µM	0.00457 µM	0.01372 µM	0.04115 µM	0.1235 µM	0.3704 µM	1.111 µM	3.333 µM	10 µM
[1]	0.969 ± 0.023	0.985 ± 0.03	0.952 ± 0.027	0.978 ± 0.028	0.963 ± 0.029	0.956 ± 0.028	0.961 ± 0.062	0.999 ± 0.061	1.05 ± 0.067	1.06 ± 0.07
[2]	0.974 ± 0.012	0.976 ± 0.013	0.961 ± 0.0044	0.966 ± 0.022	0.957 ± 0.01	0.961 ± 0.021	0.959 ± 0.03	0.952 ± 0.048	0.942 ± 0.042	0.8862 ± 0.0063
[3]	0.955 ± 0.02	0.967 ± 0.034	0.96 ± 0.021	0.967 ± 0.017	0.992 ± 0.015	0.967 ± 0.0097	0.994 ± 0.036	0.987 ± 0.037	0.941 ± 0.022	0.895 ± 0.026
[4]	1.01 ± 0.027	1.048 ± 0.0054	1.03 ± 0.013	1.03 ± 0.045	1.0327 ± 0.00085	1 ± 0.025	1.04 ± 0.011	1.03 ± 0.024	0.97 ± 0.063	0.888 ± 0.12
[5]	0.95 ± 0.033	0.984 ± 0.024	0.954 ± 0.038	0.9485 ± 0.0056	0.963 ± 0.036	0.954 ± 0.014	0.983 ± 0.02	0.97 ± 0.069	0.968 ± 0.014	0.902 ± 0.028

Cn1cc(C2=C(c3cn(C4CCN(Cc5ccccn5)CC4)c4ccccc34)C(=O)NC2=O)c2ccccc21 [Enzastaurin]
relative viability
Settings	[1]	[2]	[3]	[4]	[5]
0.00017 µM	1.08 ± 0.043	1.06 ± 0.034	1.01 ± 0.023	1.1 ± 0.045	1.04 ± 0.017
0.00051 µM	1.07 ± 0.04	1.1 ± 0.06	0.997 ± 0.011	1.09 ± 0.028	1.016 ± 0.0091
0.00152 µM	1.08 ± 0.077	1.08 ± 0.029	0.994 ± 0.035	1.104 ± 0.0092	0.999 ± 0.044
0.00457 µM	1.1 ± 0.05	1.09 ± 0.071	0.99 ± 0.015	1.1 ± 0.033	0.9983 ± 0.0017
0.01372 µM	1.1 ± 0.047	1.1 ± 0.071	0.959 ± 0.018	1.08 ± 0.052	0.971 ± 0.025
0.04115 µM	1.09 ± 0.036	1.09 ± 0.039	1.003 ± 0.0047	1.09 ± 0.031	0.989 ± 0.022
0.1235 µM	1.1 ± 0.045	1.07 ± 0.043	0.942 ± 0.024	1.07 ± 0.031	0.959 ± 0.04
0.3704 µM	1.1 ± 0.076	1.08 ± 0.036	0.97 ± 0.021	1.04 ± 0.045	0.983 ± 0.046
1.111 µM	1.12 ± 0.036	1.08 ± 0.042	0.952 ± 0.043	0.949 ± 0.057	1.01 ± 0.021
3.333 µM	1.1 ± 0.065	1.01 ± 0.013	0.964 ± 0.012	0.857 ± 0.012	0.96 ± 0.026
10 µM	0.978 ± 0.028	0.732 ± 0.034	0.659 ± 0.033	0.809 ± 0.056	0.929 ± 0.025

COC(=O)[C@@]1(O)C[C@H]2O[C@]1(C)n1c3ccccc3c3c4c(c5c6ccccc6n2c5c31)C(=O)NC4 [K-252a]
relative viability
Settings	[1]	[2]	[3]	[4]	[5]
0.00017 µM	1.07 ± 0.021	1.06 ± 0.053	0.97 ± 0.021	1.037 ± 0.0058	1.03 ± 0.036
0.00051 µM	1.08 ± 0.021	1.05 ± 0.027	0.953 ± 0.027	1.033 ± 0.0031	0.983 ± 0.044
0.00152 µM	1.11 ± 0.031	1.08 ± 0.037	0.956 ± 0.018	1.03 ± 0.054	0.982 ± 0.051
0.00457 µM	1.12 ± 0.027	1.06 ± 0.011	0.916 ± 0.045	1 ± 0.037	0.9645 ± 0.009
0.01372 µM	1.13 ± 0.021	1.05 ± 0.041	0.827 ± 0.022	0.964 ± 0.015	0.928 ± 0.027
0.04115 µM	1.13 ± 0.017	0.998 ± 0.011	0.618 ± 0.025	0.892 ± 0.033	0.862 ± 0.028
0.1235 µM	1.09 ± 0.018	0.815 ± 0.049	0.596 ± 0.023	0.814 ± 0.013	0.66 ± 0.044
0.3704 µM	1 ± 0.015	0.553 ± 0.01	0.407 ± 0.0059	0.772 ± 0.014	0.302 ± 0.017
1.111 µM	0.507 ± 0.011	0.346 ± 0.011	0.324 ± 0.013	0.528 ± 0.014	0.137 ± 0.033
3.333 µM	0.278 ± 0.013	0.258 ± 0.0071	0.0952 ± 0.018	0.294 ± 0.0069	0.128 ± 0.026
10 µM	0.0929 ± 0.0062	0.0419 ± 0.0046	0.00197 ± 0.0005	0.0167 ± 0.00085	0.13 ± 0.018
